Results published in ChEMBL document CHEMBL4390686, “Design, Synthesis, and Pharmacokinetic Evaluation of Phosphate and Amino Acid Ester Prodrugs for Improving the Oral Bioavailability of the HIV-1 Protease Inhibitor Atazanavir” (J Med Chem, 2019).
In brackets after ≈: the same amount, converted by molar mass.

How the values were obtained:
physchem [1] = conditions: HCl buffer, pH 1
Description: Aqueous solubility of the compound in pH 1 HCl buffer by RP-UPLC analysis

Protease = Protease (Human immunodeficiency virus 1, UniProt Q9YQ12)
Description: Inhibition of HIV1 protease activity

[2] = rat, in vivo, po, 3 mg/kg
[3] = rat, in vivo, po, 3 mg/kg; remark: listed apart in the source
Description: AUClast in cannulated Sprague-Dawley rat assessed as atazanavir level at 3 mg/kg equiv of atazanavir administered orally by UPLC/MS/MS analysis

physchem [4] = conditions: 30% CH3CN/acetate buffer, pH 4
Description: Half life in pH 4 30%CH3CN/acetate buffer at 50 mM by RP-UPLC analysis

physchem [5] = conditions: phosphate buffer, pH 6.5
Description: Aqueous solubility of the compound in pH 6.5 phosphate buffer by RP-UPLC analysis

[6] = (§1) Cmax in cannulated Sprague-Dawley rat assessed as (S)-(5S,10S,11S,14S)-11-Benzyl-5,14-di-tert-butyl-3,6,13,16-tetraoxo-8-(4-(pyridin-2-yl)benzyl)-2,17-dioxa-4,7,8,12,15-pentaazaoctadecan-10-yl 2-amino-3-methylbutanoate level at 3 mg/kg equiv of atazanavir administered orally by UPLC/MS/MS analysis; assay type: ADME, organism-based; parameters: dose 3 mg/kg, route oral; conditions: in vivo, po
[7] = Tmax in cannulated Sprague-Dawley rat assessed as (S)-(5S,10S,11S,14S)-11-Benzyl-5,14-di-tert-butyl-3,6,13,16-tetraoxo-8-(4-(pyridin-2-yl)benzyl)-2,17-dioxa-4,7,8,12,15-pentaazaoctadecan-10-yl 2-amino-3-methylbutanoate level at 3 mg/kg equiv of atazanavir administered orally by UPLC/MS/MS analysis; assay type: ADME, organism-based; conditions: in vivo, po
[8] = rat, in vivo, po, 3 mg/kg; remark: listed apart in the source
physchem [9] = conditions: acetate buffer, pH 4
Description: Aqueous solubility of the compound in pH 4 acetate buffer by RP-UPLC analysis

[10] = as §1, with “AUClast” for “Cmax”; assay type: ADME, organism-based; parameters: dose 3 mg/kg, time 0 - last, route oral; conditions: in vivo, po
[11] = test system: Human immunodeficiency virus 1
Description: (§2) Antiviral activity against HIV1 NL4-3 infected in human MT2 cells assessed as reduction in viral yield measured after 4 days by EnduRen live cell substrate based luciferase reporter gene assay

physchem [12] = conditions: 30% CH3CN/HCl buffer, pH 1
Description: Half life in pH 1 30%CH3CN/HCl buffer at 50 mM by RP-UPLC analysis

physchem [13] = conditions: 30% CH3CN/phosphate buffer, pH 6.5
Description: Half life in pH 6.5 30%CH3CN/phosphate buffer at 50 mM by RP-UPLC analysis

[14] = Tmax in cannulated Sprague-Dawley rat assessed as (R)-(5S,10S,11S,14S)-11-Benzyl-5,14-di-tert-butyl-3,6,13,16-tetraoxo-8-(4-(pyridin-2-yl)benzyl)-2,17-dioxa-4,7,8,12,15-pentaazaoctadecan-10-yl 2-Amino-3-methylbutanoate level at 3 mg/kg equiv of atazanavir administered orally by UPLC/MS/MS analysis; assay type: ADME, organism-based; conditions: in vivo, po
[15] = Cmax in cannulated Sprague-Dawley rat assessed as (R)-(5S,10S,11S,14S)-11-Benzyl-5,14-di-tert-butyl-3,6,13,16-tetraoxo-8-(4-(pyridin-2-yl)benzyl)-2,17-dioxa-4,7,8,12,15-pentaazaoctadecan-10-yl 2-Amino-3-methylbutanoate level at 3 mg/kg equiv of atazanavir administered orally by UPLC/MS/MS analysis; assay type: ADME, organism-based; parameters: dose 3 mg/kg, route oral; conditions: in vivo, po
[16] = Oral bioavailability in rat; assay type: ADME, organism-based; conditions: in vivo
[17] = Drug recovery in feces of po dosed rat; assay type: ADME, organism-based; conditions: faeces, read-out: Drug recovery
[18] = Aqueous solubility of the compound in pH 4 citrate buffer by RP-UPLC analysis; assay type: physicochemical
in vitro [19] = conditions: human, Caco-2
Description: Efflux ratio of apparent permeability across basolateral to apical side over apical to basolateral side in human Caco2 cells

[20] = Elimination half life in rat hepatocytes at 1 uM in absence of esterase inhibitor PMSF/CYP450 inhibitor ABT; assay type: ADME, cell-based, Hepatocyte; conditions: read-out: beta t1/2
[21] = Prodrug conversion in intestinal content of closed loop rat intestinal model assessed as atazanavir recovery at 1 mg/kg administered as cassette dose by LC/MS analysis; assay type: ADME, organism-based; conditions: in vivo
[22] = target: T1, UDP-glucuronosyltransferase 1A1 (Rattus norvegicus, UniProt Q64550); test: Inhibition of UGT1A1 in rat liver microsomes using beta-estradiol as substrate preincubated for 5 mins followed by substrate addition and measured after 40 mins by LC-MS/MS analysis; assay type: ADME
T1 sequence (Q64550 whole entry): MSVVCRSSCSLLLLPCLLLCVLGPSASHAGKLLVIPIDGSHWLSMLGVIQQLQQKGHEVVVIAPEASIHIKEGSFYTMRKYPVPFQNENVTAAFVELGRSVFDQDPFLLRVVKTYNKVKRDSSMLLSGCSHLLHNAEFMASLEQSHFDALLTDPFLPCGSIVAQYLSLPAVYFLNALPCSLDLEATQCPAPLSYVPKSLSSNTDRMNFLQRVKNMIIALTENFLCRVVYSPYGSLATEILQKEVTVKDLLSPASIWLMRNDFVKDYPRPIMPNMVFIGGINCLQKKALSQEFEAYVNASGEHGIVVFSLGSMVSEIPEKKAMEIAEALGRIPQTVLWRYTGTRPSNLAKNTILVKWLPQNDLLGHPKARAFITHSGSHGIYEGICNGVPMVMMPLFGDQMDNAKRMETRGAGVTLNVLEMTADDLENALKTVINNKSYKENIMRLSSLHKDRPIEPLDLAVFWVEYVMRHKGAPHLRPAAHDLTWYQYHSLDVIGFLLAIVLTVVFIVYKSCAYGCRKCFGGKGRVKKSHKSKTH

[23] = Prodrug conversion in mesenteric vein plasma of closed loop rat intestinal model assessed as atazanavir recovery at 1 mg/kg administered as cassette dose by LC/MS analysis; assay type: ADME, organism-based; conditions: in vivo
in vitro [24] = conditions: human, Caco-2; remark: listed apart in the source
Description: Apparent permeability across apical to basolateral side in human Caco2 cells at 2 uM

[25] = target: T2, UDP-glucuronosyltransferase 1A1 (Homo sapiens, UniProt P22309); test: Inhibition of UGT1A1 in human liver microsomes using beta-estradiol as substrate preincubated for 5 mins followed by substrate addition and measured after 40 mins by LC-MS/MS analysis; assay type: ADME
T2 sequence (P22309 whole entry): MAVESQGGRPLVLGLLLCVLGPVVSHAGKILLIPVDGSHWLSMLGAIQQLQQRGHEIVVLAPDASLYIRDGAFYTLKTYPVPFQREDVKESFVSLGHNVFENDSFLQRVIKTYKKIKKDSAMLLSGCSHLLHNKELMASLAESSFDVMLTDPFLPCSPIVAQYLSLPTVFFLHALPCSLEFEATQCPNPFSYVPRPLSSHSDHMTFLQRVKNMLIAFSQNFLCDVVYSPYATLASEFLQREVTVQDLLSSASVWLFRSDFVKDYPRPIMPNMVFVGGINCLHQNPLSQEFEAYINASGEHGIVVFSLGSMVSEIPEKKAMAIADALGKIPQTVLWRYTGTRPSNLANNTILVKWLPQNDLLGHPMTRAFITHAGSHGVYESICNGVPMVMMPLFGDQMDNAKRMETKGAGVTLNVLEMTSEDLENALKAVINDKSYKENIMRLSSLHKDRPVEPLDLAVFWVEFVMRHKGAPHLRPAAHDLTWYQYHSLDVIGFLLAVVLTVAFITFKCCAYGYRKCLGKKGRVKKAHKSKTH

[26] = Dissociation constant, pKa of the compound; assay type: physicochemical
[27] = target: T2, UDP-glucuronosyltransferase 1A1; test: Inhibition of recombinant human UGT1A1 using bilirubin as substrate preincubated for 5 mins followed by substrate addition and measured after 40 mins by LC-MS/MS analysis; assay type: ADME
[28] = Oral bioavailability in dog; assay type: ADME, organism-based, Canis lupus familiaris; conditions: in vivo
in vitro [29] = conditions: human, Caco-2; remark: listed apart in the source
Description: Apparent permeability across basolateral to apical side in human Caco2 cells at 2 uM

physchem [30] = conditions: phosphate buffer, pH 7.4
Description: Aqueous solubility of the compound in pH 7.4 phosphate buffer by RP-UPLC analysis

[31] = Aqueous solubility of the compound in pH 5 buffer by RP-UPLC analysis; assay type: physicochemical
[32] = target: T1, UDP-glucuronosyltransferase 1A1; test: Inhibition of recombinant rat UGT1A1 using beta-estradiol as substrate preincubated for 5 mins followed by substrate addition and measured after 40 mins by LC-MS/MS analysis; assay type: ADME
[33] = Drug recovery in feces of po dosed dog; assay type: ADME, organism-based, Canis lupus familiaris; conditions: faeces, read-out: Drug recovery
[34] = Aqueous solubility of the compound in pH 3 buffer by RP-UPLC analysis; assay type: physicochemical
[35] = test system: Human immunodeficiency virus 1; test: microbe, parasite or virus in culture; conditions: Human immunodeficiency virus 1, NL4-3, MT2, 96 h
Description: as §2

[36] = Drug recovery in feces of po dosed human; assay type: ADME, organism-based; conditions: faeces, read-out: Drug recovery
[37] = Prodrug conversion in intestinal homogenates of closed loop rat intestinal model assessed as atazanavir recovery at 1 mg/kg administered as cassette dose by LC/MS analysis; assay type: ADME, organism-based, Intestine; conditions: in vivo

Protease, sequence (Q9YQ12 whole entry): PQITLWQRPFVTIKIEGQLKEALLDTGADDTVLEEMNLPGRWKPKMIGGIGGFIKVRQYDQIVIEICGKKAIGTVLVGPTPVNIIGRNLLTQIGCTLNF

COC(=O)N[C@H](C(=O)N[C@@H](Cc1ccccc1)[C@H](CN(Cc1ccc(-c2ccccn2)cc1)NC(=O)[C@@H](NC(=O)OC)C(C)(C)C)OC(=O)[C@@H](NC(=O)[C@@H](N)C(C)C)C(C)C)C(C)(C)C
solubility (physchem [1]): > 2150 µg/mL
IC50 (Protease): 4 to 1140 nM
Tmax [2]: 0.21 days
AUClast [3]: 0.02 µM·h
half-life at 50000 µM (physchem [4]): > 20.8 days
solubility (physchem [5]): 780 µg/mL (≈ 864 µM)
Cmax [6]: 30 nM
Tmax [7]: 0.12 days
Cmax [8]: 4 nM
solubility (physchem [9]): > 1200 µg/mL
AUClast [10]: 0.085 µM·h
EC50 [11]: 0.9 to 1250 nM
half-life at 50000 µM (physchem [12]): > 20.8 days
half-life at 50000 µM (physchem [13]): > 20.8 days

COC(=O)N[C@H](C(=O)N[C@@H](Cc1ccccc1)[C@H](CN(Cc1ccc(-c2ccccn2)cc1)NC(=O)[C@@H](NC(=O)OC)C(C)(C)C)OC(=O)[C@H](NC(=O)[C@H](N)C(C)C)C(C)C)C(C)(C)C
solubility (physchem [1]): > 2400 µg/mL
IC50 (Protease): 4 to 1140 nM
Tmax [2]: 0.042 days
AUClast [3]: 0.053 µM·h
half-life at 50000 µM (physchem [4]): > 20.8 days
solubility (physchem [5]): 820 µg/mL (≈ 908 µM)
Cmax [8]: 12 nM
solubility (physchem [9]): > 2200 µg/mL
Tmax [14]: 0.021 days
EC50 [11]: 0.9 to 1250 nM
half-life at 50000 µM (physchem [12]): > 20.8 days
half-life at 50000 µM (physchem [13]): > 20.8 days
Cmax [15]: 1430 nM

COC(=O)N[C@H](C(=O)N[C@@H](Cc1ccccc1)[C@@H](O)CN(Cc1ccc(-c2ccccn2)cc1)NC(=O)[C@@H](NC(=O)OC)C(C)(C)C)C(C)(C)C [ATAZANAVIR]
bioavailability [16]: 15%
dose excreted [17]: 39%
solubility [18]: < 1 µg/mL
efflux ratio (in vitro [19]): > 14
half-life at 1 µM [20]: 0.0187 days
IC50 (Protease): 0.3 nM
Drug recovery [21]: 16.1%
IC50 [22]: 3400 nM
Drug recovery [23]: 1.4%
Papp A→B at 2 µM (in vitro [24]): < 1.5 ×10⁻⁶ cm/s
IC50 [25]: 600 nM
pKa [26]: 4.7
IC50 [27]: 300 nM
bioavailability [28]: 36%
Papp B→A at 2 µM (in vitro [29]): 20.3 ×10⁻⁶ cm/s
solubility (physchem [30]): < 1 µg/mL
solubility [31]: < 1 µg/mL
IC50 [32]: 4200 nM
dose excreted [33]: 79%
solubility [34]: 28 µg/mL (≈ 39.7 µM)
EC50 [35]: 0.7 nM
dose excreted [36]: 79%
Drug recovery [37]: 1.6%
